# Test results reported in patent publication US20110305637A1, “RADIOLABELLED PDE10 LIGANDS” (Janssen Pharmaceutica N.V., priority 2009, published 2011).
# “And” between values parts separate entries of the source, which are not always exact repeats. Identical values can stand only once.
# Test: Biodistribution study in male Wistar rats
# Format: in vivo, rat
# Conditions: for % ID/g × kg in Blood / % ID/g × kg in Cerebellum / % ID/g × kg in Cerebrum + Cerebellum / % ID/g × kg in Cerebrum total / % ID/g × kg in Cortex / % ID/g × kg in Heart / % ID/g × kg in Hippocampus / % ID/g × kg in Kidneys / % ID/g × kg in Liver / % ID/g × kg in Lungs / % ID/g × kg in Rest of cerebrum / % ID/g × kg in Spleen + Pancreas / % ID/g × kg in Striatum: normalized for body weight
# Experimental: (§1) The biodistribution study of [^18F]B-1 was carried out in male Wistar rats (body weight 250-350 g) at 2 min, 30 min and 60 min post injection (p.i.) (n=3/time point). Rats were injected with about 1.1 MBq of the tracer via tail vein under anesthesia (2.5% Isoflurane in O2 at 1 L/min flow rate) and sacrificed by decapitation at above specified time points. Blood and major organs were collected in tared tubes and weighed. The radioactivity in blood, organs and other body parts was measured using an automated gamma counter The distribution of radioactivity in different parts of the body at different time points p.i. of the tracer was calculated and expressed as percentage of injected dose (% ID), and as percentage of injected dose per gram tissue (% ID/g) for the selected organs. % ID is calculated as cpm in organ/total cpm recovered. For calculation of total radioactivity in blood, blood mass was assumed to be 7% of the body mass.
# as §1, with “[^18F]B-2” for “[^18F]B-1”, “270-340” for “250-350”
# [1] = 60 min p.i., % ID/g values normalized for the body weight
structure (smiles),measurement,setting,value
[18F]CCCn1cc(-c2ccncc2)c(-c2ccc(OCc3ccc4ccccc4n3)cc2)n1 [[^18F]B-1],% ID/g × kg in Blood,30 min p.i.,0.03 ± 0.00 % ID/g × kg
same,% ID/g × kg in Cerebellum,30 min p.i.,0.023 ± 0.00 % ID/g × kg
same,% ID/g × kg in Cerebrum + Cerebellum,30 min p.i.,0.03 ± 0.00 % ID/g × kg
same,% ID/g × kg in Cerebrum total,30 min p.i.,0.032 ± 0.00 % ID/g × kg
same,% ID/g × kg in Cortex,30 min p.i.,0.027 ± 0.01 % ID/g × kg
same,% ID/g × kg in Heart,30 min p.i.,0.07 ± 0.00 % ID/g × kg
same,% ID/g × kg in Hippocampus,30 min p.i.,0.021 ± 0.00 % ID/g × kg
same,% ID/g × kg in Kidneys,30 min p.i.,0.16 ± 0.01 % ID/g × kg
same,% ID/g × kg in Liver,30 min p.i.,1.03 ± 0.08 % ID/g × kg
same,% ID/g × kg in Lungs,30 min p.i.,0.35 ± 0.03 % ID/g × kg
same,% ID/g × kg in Rest of cerebrum,30 min p.i.,0.030 ± 0.00 % ID/g × kg
same,% ID/g × kg in Spleen + Pancreas,30 min p.i.,0.07 ± 0.00 % ID/g × kg
same,% ID/g × kg in Striatum,30 min p.i.,0.106 ± 0.00 % ID/g × kg
same,% ID in Blood,60 min p.i.,1.9 % ID and 1.94 ± 0.1 % ID
same,% ID in Carcass,60 min p.i.,27.96 ± 0.7 % ID
same,% ID in Cerebellum,60 min p.i.,0.012 ± 0.00 % ID
same,% ID in Cerebrum total,60 min p.i.,0.101 ± 0.01 % ID
same,% ID in Cortex,60 min p.i.,0.012 ± 0.00 % ID
same,% ID in Heart,60 min p.i.,0.17 ± 0.0 % ID
same,% ID in Hippocampus,60 min p.i.,0.003 ± 0.00 % ID
same,% ID in Intestines,60 min p.i.,14.72 ± 4.1 % ID
same,% ID in Kidneys,60 min p.i.,1.45 ± 0.1 % ID
same,% ID in Liver,60 min p.i.,41.44 ± 1.5 % ID
same,% ID in Lungs,60 min p.i.,0.32 ± 0.0 % ID
same,% ID in Rest of cerebrum,60 min p.i.,0.071 ± 0.01 % ID
same,% ID in Spleen + Pancreas,60 min p.i.,0.31 ± 0.0 % ID
same,% ID in Stomach,60 min p.i.,10.00 ± 2.5 % ID
same,% ID in Striatum,60 min p.i.,0.015 ± 0.00 % ID
same,% ID in Urine,60 min p.i.,1.87 ± 0.2 % ID
same,% ID present in the liver and intestines in total,60 min p.i.,56 % ID
same,% ID present in the urinary system,60 min p.i.,~3.3 % ID
same,% ID/g in Blood,60 min p.i.,0.08 ± 0.00 % ID/g
same,% ID/g in Cerebellum,60 min p.i.,0.04 ± 0.00 % ID/g
same,% ID/g in Cerebrum + Cerebellum,60 min p.i.,0.07 ± 0.00 % ID/g
same,% ID/g in Cerebrum total,60 min p.i.,0.07 ± 0.00 % ID/g
same,% ID/g in Cortex,60 min p.i.,0.06 ± 0.00 % ID/g
same,% ID/g in Heart,60 min p.i.,0.16 ± 0.00 % ID/g
same,% ID/g in Hippocampus,60 min p.i.,0.05 ± 0.01 % ID/g
same,% ID/g in Kidneys,60 min p.i.,0.46 ± 0.02 % ID/g
same,% ID/g in Liver,60 min p.i.,3.11 ± 0.06 % ID/g
same,% ID/g in Lungs,60 min p.i.,0.20 ± 0.02 % ID/g
same,% ID/g in Rest of cerebrum,60 min p.i.,0.07 ± 0.00 % ID/g
same,% ID/g in Spleen + Pancreas,60 min p.i.,0.19 ± 0.01 % ID/g
same,striatum/blood ratio,[1],3.0
same,striatum/cerebellum ratio,[1],5.6
same,striatum/cortex ratio,[1],4.4
same,striatum/hippocampus ratio,[1],5.2
same,% ID/g × kg in Blood,60 min p.i.,0.03 ± 0.00 % ID/g × kg
same,% ID/g × kg in Cerebellum,60 min p.i.,0.015 ± 0.00 % ID/g × kg
same,% ID/g × kg in Cerebrum + Cerebellum,60 min p.i.,0.02 ± 0.00 % ID/g × kg
same,% ID/g × kg in Cerebrum total,60 min p.i.,0.024 ± 0.00 % ID/g × kg
same,% ID/g × kg in Cortex,60 min p.i.,0.019 ± 0.00 % ID/g × kg
same,% ID/g × kg in Heart,60 min p.i.,0.05 ± 0.00 % ID/g × kg
same,% ID/g × kg in Hippocampus,60 min p.i.,0.016 ± 0.00 % ID/g × kg
same,% ID/g × kg in Kidneys,60 min p.i.,0.16 ± 0.01 % ID/g × kg
same,% ID/g × kg in Liver,60 min p.i.,1.04 ± 0.02 % ID/g × kg
same,% ID/g × kg in Lungs,60 min p.i.,0.07 ± 0.01 % ID/g × kg
same,% ID/g × kg in Rest of cerebrum,60 min p.i.,0.022 ± 0.00 % ID/g × kg
same,% ID/g × kg in Spleen + Pancreas,60 min p.i.,0.06 ± 0.01 % ID/g × kg
same,% ID/g × kg in Striatum,60 min p.i.,0.083 ± 0.01 % ID/g × kg
same,"Clearance, 2 min/30 min ratio for % ID/g values",Blood,1.60
same,"Clearance, 2 min/60 min ratio for % ID/g values",Blood,2.28
same,"Clearance, 2 min/30 min ratio for % ID/g values",Cerebellum,4.37
same,"Clearance, 2 min/60 min ratio for % ID/g values",Cerebellum,8.8 and 8.81
same,"Clearance, 2 min/30 min ratio for % ID/g values",Cerebrum total,2.54
same,"Clearance, 2 min/60 min ratio for % ID/g values",Cerebrum total,4.34
same,"Clearance, 2 min/30 min ratio for % ID/g values",Cortex,3.81
same,"Clearance, 2 min/60 min ratio for % ID/g values",Cortex,7.19
same,"Clearance, 2 min/30 min ratio for % ID/g values",Hippocampus,2.54
same,"Clearance, 2 min/60 min ratio for % ID/g values",Hippocampus,4.33
same,"Clearance, 2 min/30 min ratio for % ID/g values",Rest of cerebrum,2.54
same,"Clearance, 2 min/60 min ratio for % ID/g values",Rest of cerebrum,4.53
same,"Clearance, 2 min/30 min ratio for % ID/g values",Striatum,0.97
same,"Clearance, 2 min/60 min ratio for % ID/g values",Striatum,1.6 and 1.62
same,% ID present in the carcass,at all time points examined,~26 % ID
